Experimental data from US8796001B2, “Metalloenzyme inhibitor compounds” (Viamet Pharmaceuticals, Inc., priority 2011, dated 2014).

Test system: Puccinia recondita tritici = Puccinia triticina (PUCCRT)
Test: Fungicidal activity vs. leaf rust on wheat plants
Type: in vivo
Settings: wheat (Yuma) sprayed at 50 ppm, inoculated the following day, rated 7-9 days later, read-out: Puccinia Rating (% Disease Control @ 50 ppm)
Excerpt: D. Evaluation of Fungicidal Activity vs. Leaf Rust (Causal Agent Puccinia Recondita Tritici=Puccinia Triticina; Bayer Code PUCCRT)
Each pot contained 3-8 seedlings. These plants were sprayed until wet with the formulated test compounds. The compounds were formulated at 50 ppm in 10 vol. % acetone plus 90 vol. % Triton X water (deionized water 99.99 wt %+0.01 wt % Triton X100), giving a “formulated test compound.” Formulated test compounds were applied to plants using a turn table sprayer fitted with two opposing air atomization nozzles which delivered approximately 1500 L/ha of spray volume. On the following day, the leaves were inoculated with an aqueous spore suspension of Puccinia recondita tritici and the plants were kept in high humidity overnight to permit spores to germinate and infect the leaf. The plants were then transferred to a greenhouse until disease developed on untreated control plants. Disease severity was evaluated 7-9 days later, depending on the speed of disease development.
In each case of Table 3, the Puccinia rating scale is as follows: […]

Structure (SMILES): N#Cc1ccc(COc2ccc(C(F)(F)C(O)(Cn3cnnn3)c3ccc(F)cc3F)nc2)nc1 (centres unmarked) [Compound 50, 6-(((6-(2-(2,4-Difluorophenyl)-1,1-difluoro-2-hydroxy-3-(1H-tetrazol-1-yl)propyl)pyridin-3-yl)oxy)methyl)nicotinonitrile]
- pest or weed control at 50 ppm: 80 to 100%

Structure (SMILES): N#Cc1cccc(COc2ccc(C(F)(F)C(O)(Cn3cnnn3)c3ccc(F)cc3F)nc2)c1 (centres unmarked) [Compound 52, 3-(((6-(2-(2,4-Difluorophenyl)-1,1-difluoro-2-hydroxy-3-(1H-tetrazol-1-yl)propyl)pyridin-3-yl)oxy)methyl)benzonitrile]
- pest or weed control at 50 ppm: 80 to 100%

Structure (SMILES): OC(Cn1cnnn1)(c1ccc(Cl)cc1F)C(F)(F)c1ccc(OCC2CC2)cn1 (centres unmarked) [Compound 54, 2-(4-Chloro-2-fluorophenyl)-1-(5-(cyclopropylmethoxy)pyridin-2-yl)-1,1-difluoro-3-(1H-tetrazol-1-yl)propan-2-ol]
- pest or weed control at 50 ppm: 80 to 100%

Structure (SMILES): N#Cc1ccc(COc2ccc(C(F)(F)C(O)(Cn3cnnn3)c3ccc(Cl)cc3F)nc2)cc1 (centres unmarked) [Compound 55, 4-(((6-(2-(4-Chloro-2-fluorophenyl)-1,1-difluoro-2-hydroxy-3-(1H-tetrazol-1-yl)propyl)pyridin-3-yl)oxy)methyl)benzonitrile]
- pest or weed control at 50 ppm: 80 to 100%

Structure (SMILES): N#Cc1ccc(COc2ccc(C(F)(F)C(O)(Cn3cnnn3)c3ccc(F)cc3F)nc2)c(F)c1 (centres unmarked) [Compound 57, 4-(((6-(2-(2,4-Difluorophenyl)-1,1-difluoro-2-hydroxy-3-(1H-tetrazol-1-yl)propyl)pyridin-3-yl)oxy)methyl)-3-fluorobenzonitrile]
- pest or weed control at 50 ppm: 80 to 100%

Structure (SMILES): N#Cc1ccc(F)c(COc2ccc(C(F)(F)C(O)(Cn3cnnn3)c3ccc(F)cc3F)nc2)c1 (centres unmarked) [Compound 59, 3-(((6-(2-(2,4-Difluorophenyl)-1,1-difluoro-2-hydroxy-3-(1H-tetrazol-1-yl)propyl)pyridin-3-yl)oxy)methyl)-4-fluorobenzonitrile]
- pest or weed control at 50 ppm: 80 to 100%

Structure (SMILES): N#Cc1ccc(COc2ccc(C(F)(F)C(O)(Cn3cnnn3)c3ccc(Cl)cc3F)nc2)nc1 (centres unmarked) [Compound 61, 6-(((6-(2-(4-Chloro-2-fluorophenyl)-1,1-difluoro-2-hydroxy-3-(1H-tetrazol-1-yl)propyl)pyridin-3-yl)oxy)methyl)nicotinonitrile]
- pest or weed control at 50 ppm: 80 to 100%

Structure (SMILES): N#Cc1cc(COc2ccc(C(F)(F)C(O)(Cn3cnnn3)c3ccc(F)cc3F)nc2)ccc1F (centres unmarked) [Compound 65, 5-(((6-(2-(2,4-Difluorophenyl)-1,1-difluoro-2-hydroxy-3-(1H-tetrazol-1-yl)propyl)pyridin-3-yl)oxy)methyl)-2-fluorobenzonitrile]
- pest or weed control at 50 ppm: 80 to 100%

Structure (SMILES): N#Cc1cccc(COc2ccc(C(F)(F)C(O)(Cn3cnnn3)c3ccc(F)cc3F)nc2)c1F (centres unmarked) [Compound 67, 3-(((6-(2-(2,4-Difluorophenyl)-1,1-difluoro-2-hydroxy-3-(1H-tetrazol-1-yl)propyl)pyridin-3-yl)oxy)methyl)-2-fluorobenzonitrile]
- pest or weed control at 50 ppm: 80 to 100%

Structure (SMILES): CC(C)COc1ccc(C(F)(F)C(O)(Cn2cnnn2)c2ccc(Cl)cc2F)nc1 (centres unmarked) [Compound 69, 2-(4-Chloro-2-fluorophenyl)-1,1-difluoro-1-(5-isobutoxypyridin-2-yl)-3-(1H-tetrazol-1-yl)propan-2-ol]
- pest or weed control at 50 ppm: 80 to 100%

Structure (SMILES): OC(Cn1cnnn1)(c1ccc(Cl)cc1F)C(F)(F)c1ccc(OCC(F)(F)F)cn1 (centres unmarked) [Compound 71, 2-(4-Chloro-2-fluorophenyl)-1,1-difluoro-3-(1H-tetrazol-1-yl)-1-(5-(2,2,2-trifluoroethoxy)pyridin-2-yl)propan-2-ol]
- pest or weed control at 50 ppm: 80 to 100%

Structure (SMILES): N#Cc1ccc(COc2ccc(C(F)(F)C(O)(Cn3cnnn3)c3ccc(F)cc3F)nc2)s1 (centres unmarked) [Compound 73, 5-(((6-(2-(2,4-Difluorophenyl)-1,1-difluoro-2-hydroxy-3-(1H-tetrazol-1-yl)propyl)pyridin-3-yl)oxy)methyl)thiophene-2-carbonitrile]
- pest or weed control at 50 ppm: 80 to 100%

Structure (SMILES): OC(Cn1cnnn1)(c1ccc(F)cc1F)C(F)(F)c1ccc(Oc2ccc(C(F)(F)F)cc2)cn1 (centres unmarked) [Compound 75, 2-(2,4-Difluorophenyl)-1,1-difluoro-3-(1H-tetrazol-1-yl)-1-(5-(4-(trifluoromethyl)phenoxy)pyridin-2-yl)propan-2-ol]
- pest or weed control at 50 ppm: 80 to 100%

Structure (SMILES): OC(Cn1cnnn1)(c1ccc(F)cc1F)C(F)(F)c1ccc(Oc2ccc(OC(F)(F)F)cc2)cn1 (centres unmarked) [Compound 76, 2-(2,4-Difluorophenyl)-1,1-difluoro-3-(1H-tetrazol-1-yl)-1-(5-(4-(trifluoromethoxy)phenoxy)pyridin-2-yl)propan-2-ol]
- pest or weed control at 50 ppm: 80 to 100%

Structure (SMILES): OC(Cn1cnnn1)(c1ccc(F)cc1F)C(F)(F)c1ccc(Oc2cccc(F)c2)cn1 (centres unmarked) [Compound 77, 2-(2,4-Difluorophenyl)-1,1-difluoro-1-(5-(3-fluorophenoxy)pyridin-2-yl)-3-(1H-tetrazol-1-yl)propan-2-ol]
- pest or weed control at 50 ppm: 60 to 79%

Structure (SMILES): N#Cc1cccc(Oc2ccc(C(F)(F)C(O)(Cn3cnnn3)c3ccc(F)cc3F)nc2)c1 (centres unmarked) [Compound 78, 3-((6-(2-(2,4-Difluorophenyl)-1,1-difluoro-2-hydroxy-3-(1H-tetrazol-1-yl)propyl)pyridin-3-yl)oxy)benzonitrile]
- pest or weed control at 50 ppm: 80 to 100%

Structure (SMILES): N#Cc1ccc(Oc2ccc(C(F)(F)C(O)(Cn3cnnn3)c3ccc(Cl)cc3F)nc2)cc1 (centres unmarked) [Compound 79, 4-((6-(2-(4-Chloro-2-fluorophenyl)-1,1-difluoro-2-hydroxy-3-(1H-tetrazol-1-yl)propyl)pyridin-3-yl)oxy)benzonitrile]
- pest or weed control at 50 ppm: 80 to 100%

Structure (SMILES): N#Cc1ccc(Oc2ccc(C(F)(F)C(O)(Cn3cnnn3)c3ccc(Cl)cc3F)nc2)cc1F (centres unmarked) [Compound 81, 4-((6-(2-(4-Chloro-2-fluorophenyl)-1,1-difluoro-2-hydroxy-3-(1H-tetrazol-1-yl)propyl)pyridin-3-yl)oxy)-2-fluorobenzonitrile]
- pest or weed control at 50 ppm: 80 to 100%

Structure (SMILES): N#Cc1ccc(COc2ccc(C(F)(F)C(O)(Cn3ncnn3)c3ccc(F)cc3F)nc2)cc1 (centres unmarked) [Compound 83, 4-(((6-(2-(2,4-Difluorophenyl)-1,1-difluoro-2-hydroxy-3-(2H-tetrazol-2-yl)propyl)pyridin-3-yl)oxy)methyl)benzonitrile]
- pest or weed control at 50 ppm: 40 to 59%

Structure (SMILES): OC(Cn1cnnn1)(c1ccc(F)cc1F)C(F)(F)c1ccc(Oc2cccc(Cl)c2)cn1 (centres unmarked) [Compound 84, 1-(5-(3-Chlorophenoxy)pyridin-2-yl)-2-(2,4-difluorophenyl)-1,1-difluoro-3-(1H-tetrazol-1-yl)propan-2-ol]
- pest or weed control at 50 ppm: 80 to 100%

Structure (SMILES): COc1cccc(Oc2ccc(C(F)(F)C(O)(Cn3cnnn3)c3ccc(F)cc3F)nc2)c1 (centres unmarked) [Compound 85, 2-(2,4-Difluorophenyl)-1,1-difluoro-1-(5-(3-methoxyphenoxy)pyridin-2-yl)-3-(1H-tetrazol-1-yl)propan-2-ol]
- pest or weed control at 50 ppm: 80 to 100%

Structure (SMILES): OC(Cn1cnnn1)(c1ccc(F)cc1F)C(F)(F)c1ccc(Oc2ccc(F)c(F)c2)cn1 (centres unmarked) [Compound 86, 1-(5-(3,4-Difluorophenoxy)pyridin-2-yl)-2-(2,4-difluorophenyl)-1,1-difluoro-3-(1H-tetrazol-1-yl)propan-2-ol]
- pest or weed control at 50 ppm: 80 to 100%

Structure (SMILES): COc1ccc(Oc2ccc(C(F)(F)C(O)(Cn3cnnn3)c3ccc(F)cc3F)nc2)cc1 (centres unmarked) [Compound 87, 2-(2,4-Difluorophenyl)-1,1-difluoro-1-(5-(4-methoxyphenoxy)pyridin-2-yl)-3-(1H-tetrazol-1-yl)propan-2-ol]
- pest or weed control at 50 ppm: 80 to 100%
